Data on four compounds can be found in patent US20150190534A1, “COMPOUNDS FOR USE AS POSITRON EMISSION IMAGING AGENTS” (UNIVERSITY OF BERN, priority 2014, published 2015).

Substitutions are numbered along the chain they refer to. Read-outs that look alike come from different tables or passages of the source.

For series [1], the target named is T1, mutant T877A-AR (pSG5AR-T877A) transfected COS-7 cells (Homo sapiens, UniProt P10275, T878A).
T1 construct: pSG5-AR with full-length cDNA of human WT-AR; expressed in transfected cells; host or cells: COS-7
T1 sequence (P10275 1-920 T878A): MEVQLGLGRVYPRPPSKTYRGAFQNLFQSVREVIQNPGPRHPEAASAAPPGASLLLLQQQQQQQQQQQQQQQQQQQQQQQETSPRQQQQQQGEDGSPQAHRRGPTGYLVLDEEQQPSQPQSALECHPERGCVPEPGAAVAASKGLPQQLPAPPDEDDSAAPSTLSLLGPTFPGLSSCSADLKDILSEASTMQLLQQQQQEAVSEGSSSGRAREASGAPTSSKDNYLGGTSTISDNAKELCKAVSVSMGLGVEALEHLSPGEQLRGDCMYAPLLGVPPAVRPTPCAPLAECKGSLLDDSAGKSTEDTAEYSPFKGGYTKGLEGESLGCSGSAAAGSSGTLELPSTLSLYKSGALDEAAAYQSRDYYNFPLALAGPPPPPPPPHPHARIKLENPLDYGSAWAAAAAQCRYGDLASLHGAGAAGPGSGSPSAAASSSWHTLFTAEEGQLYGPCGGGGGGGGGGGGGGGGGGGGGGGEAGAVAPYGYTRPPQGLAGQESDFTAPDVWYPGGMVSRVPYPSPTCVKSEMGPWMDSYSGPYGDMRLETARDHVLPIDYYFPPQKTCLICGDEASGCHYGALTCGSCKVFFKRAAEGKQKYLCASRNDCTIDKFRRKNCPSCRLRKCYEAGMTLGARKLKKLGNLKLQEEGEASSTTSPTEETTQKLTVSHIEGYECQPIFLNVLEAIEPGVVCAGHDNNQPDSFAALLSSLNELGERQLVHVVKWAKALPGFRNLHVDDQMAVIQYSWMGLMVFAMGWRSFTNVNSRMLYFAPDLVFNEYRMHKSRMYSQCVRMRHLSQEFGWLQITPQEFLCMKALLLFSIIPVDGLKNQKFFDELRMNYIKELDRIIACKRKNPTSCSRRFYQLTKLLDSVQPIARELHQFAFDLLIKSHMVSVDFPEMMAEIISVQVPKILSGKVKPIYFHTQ
In kind it is cell-based. The text has this:
Prostate. Jun. 1, 2011; 71(8):872-880.), progesterone receptor (pSG5-PR-alpha, pSG5-pPRbeta, PR), glucocorticoid (pCMV5-hGR-alpha, GR) and mineralocorticoid receptors (pRShMR, MR), estrogen receptors (pCMV5-ER-alpha, pCMV5-ER-beta, ER). T877A-AR was generated by site-directed mutagenesis as described in Andrieu T, Bertolini R, Nichols S E, et al. A novel steroidal antiandrogen targeting wild type and mutant androgen receptors. Biochem Pharmacol. Dec. 1, 2011; 82(11):1651-1662. Cells seeded on 6-well plates (density: 5×10^5/well) were transfected 96 h later with 1 μg of empty (pcDNA3) or human AR encoding plasmids using 3 μl of FuGENE-HD transfection reagent (Roche, Rotkreuz, Switzerland). One day after transfection the medium was changed to 2% charcoal treated (CT) FBS containing medium.
Then cells were washed with ice cold PBS. Collected medium and PBS were considered as the unbound fraction. Cells were incubated for 5 min in glycine buffer 50 mM (pH 2.8), washed with PBS (membrane fraction) and lysed with RIPA buffer (Sigma, R0278) (cellular fraction). The radioactivity was measured by gamma counting. Cellular uptake of radioactivity was corrected by the protein amount (BCA assay, Pierce).

The procedure of series [2]: (§1) Male SCID-mice (Charles River, Sulzfeld, Germany) were subcutaneously injected with C4-2 and PC-3 cells into both shoulders as previously described (21).
(§2) Images were reconstructed at 0.6 mm thickness using a H31s medium smooth plus kernel. […] For biodistribution studies mice were sacrificed using CO2 after 1-3 h, designated organs and tissues harvested and weighed. Radioactivity was measured in a Gamma-counter (Wizard, Perkin Elmer) and the percentage of injected dose per gram of tissue (% ID/g) calculated.

In series [3] the test system is T877A-AR positive C4-2 tumors. The note with it: 1 h. On the procedure:
as §1, §2

In series [4] the test system is receptor negative PC-3 tumors. The note with it: 1 h. On the procedure: as §1, §2
Series [5] concerns the target T2, human WT-AR (Homo sapiens, UniProt P10275).
T2 construct: pSG5-AR with full-length cDNA of human WT-AR; expressed in transfected cells; host or cells: COS-7
T2 sequence (P10275 1-920): T1 sequence (P10275 1-920 T878A) with A878T
Briefly: Whole cell competitive binding assay, WT-AR. As to the method:
(§3) Prostate. Jun. […] T877A-AR was generated by site-directed mutagenesis as described in Andrieu T, Bertolini R, Nichols S E, et al. A novel steroidal antiandrogen targeting wild type and mutant androgen receptors. Biochem Pharmacol. Dec. […] Cells seeded on 6-well plates (density: 5×10^5/well) were transfected 96 h later with 1 μg of empty (pcDNA3) or human AR encoding plasmids using 3 μl of FuGENE-HD transfection reagent (Roche, Rotkreuz, Switzerland). One day after transfection the medium was changed to 2% charcoal treated (CT) FBS containing medium.
(§4) In 24 wells 50′000 COS-7 cells were seeded and transfected with 500 ng of receptor encoding plasmids. One day later, cells were washed and cultured in 0.5 ml of phenol-red free DMEM with 2% CT-FBS for another 24 h. […] Supernatant and cells were mixed with scintillation liquid (Irgasafe, Perkin Elmer) and radioactivity counted (Tri-Carb 2000CA, Canberra Packard). The percentage of binding in presence and absence of derivative was calculated relatively to total dpm and results expressed as percentage of binding relative to the ^3H-tracer alone (100%).

Series [6] addresses T3, T877A-AR (Homo sapiens, UniProt P10275, T878A).
T3 construct: pSG5-AR with full-length cDNA of human WT-AR; expressed in transfected cells; host or cells: COS-7
T3 sequence (P10275 1-920 T878A): T1 sequence (P10275 1-920 T878A)
Briefly: Whole cell competitive binding assay, T877A-AR. On the procedure: as §3, §4

Series [7] has as its system T877A-AR positive C4-2 tumors. Briefly: PET/CT imaging, C4-2 tumor bearing mice. The format is in vivo, mouse.
Series [8] relates to PC-3 AR-negative xenografts. Briefly: PET/CT imaging, PC-3 tumor bearing mice. Conditions: 3 h after injection. The format is in vivo, mouse.

Broadly, the IC50 is the concentration that gives 50% inhibition.

Turning to ^18F-fluorodeoxyglucose [^18F-FDG], in series [1], the “preferential uptake by transfected cells” value is given as “did not reveal any preferential uptake” and the “radioactivity after washing procedures” value was “eliminated”.
As for `C[N+](C)(CF)CCO` [^18F-FCH, ^18F-fluorocholine], the “preferential uptake by transfected cells” value in series [1] (pcDNA3, WT-AR or T877A-AR transfected COS-7 cells) is listed as “did not reveal any preferential uptake”. Also, the “radioactivity after washing procedures” value in series [1] (transfected COS-7 cells, washing procedures) is recorded as “eliminated”. Further, in series [2] (1 h), the Bone was 27.99 ± 5.95 % ID/g, the Brain came out at 9.61 ± 2.13 % ID/g, the Heart turned out to be 76.93 ± 5.18 % ID/g and the Intestine was determined as 22.97 ± 4.67 % ID/g. In series [2] (1 h), this compound returned a Kidney of 164.72 ± 33.57 % ID/g, a Liver of 48.82 ± 7.55 % ID/g, a Lung of 97.42 ± 23.21 % ID/g and a Muscle of 10.36 ± 2.58 % ID/g. In series [2] (1 h), the Prostate was found to be 48.26 ± 19.35 % ID/g, the Spleen was 66.48 ± 19.45 % ID/g and the Testis is recorded as 13.58 ± 2.64 % ID/g. Also, the route of metabolism/excretion entry in series [2] (tumor bearing SCID-mice) is given as “excreted predominantly by the kidney”. Besides, the “C4-2 Tumor” value in series [3] amounted to 31.62 ± 3.88 % ID/g. For the same compound, the “PC-3 Tumor” value in series [4] was 5.65 ± 1.37 % ID/g.
`C[C@]12CCC(=O)C[C@@H]1CC[C@@H]1[C@@H]2CC[C@]2(C)[C@@H](OC(=O)NCCCF)CC[C@@H]12` [RB390]: the half-inhibitory concentration (IC50) worked out at 357 nM in series [5] and 32 nM in series [6]. In addition, the “PET signal in C4-2 tumors with unlabelled DHT” value in series [7] (3 h, excess of unlabelled DHT injected in parallel) is “nearly full receptor blockade”. In addition, in series [7] (3 h after injection), the “PET signal in C4-2 tumors” value is “bound specifically”. For the same compound, in series [8], the “PET signal in PC-3 tumors” value is listed as “remained at background levels”.
As to `C[C@]12CC[C@H](O)C[C@@H]1CC[C@@H]1[C@@H]2CC[C@]2(C)[C@@H](OC(=O)NCCCF)CC[C@@H]12` [RB448], the IC50 was determined as 2200 nM in series [5] and 37.7 nM in series [6]. In addition, the “affinity/selectivity for T877A-AR versus WT-AR” value in series [6] (comparison of IC50 values) is reported as “even more favorable selectivity”.
